The values below come from US20240262842A1, “SMALL MOLECULE INHIBITORS OF KRAS G12C MUTANT” (Merck Sharp & Dohme LLC, priority 2021, published 2024).

Where two headings read alike, the source gives them in different places.

One test has as its system MIA PaCa-2 cells. As to the kind of experiment: Growth inhibition activity on KRAS-G12C mutant cell line (CellTiter-Glo 3D). It counts as cell-based, human. To be noted: MIA PaCa-2, 3-day culture with compound. The essentials: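 MIA PaCa-2 cells in RPMI1640 with 10% FBS, U-bottom wells, cultured 1 day before compound (0.2% DMSO final), then 3 days at 37 °C, 5% CO2. Viability by CellTiter-Glo 3D luminescence; growth inhibition versus untreated wells gives IC50 (nM).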
For orientation: ATP-based viability assays read luminescence as a measure of living cells.

Test [1] deals with T1, interaction between GMPPNP-bound recombinant K-Ras4B G12C mutant protein and cRAF RAS-binding domain (cRAF-RBD) (Homo sapiens, UniProt P01116, G12C).
T1 construct: His-tag (N)
Nature of the test: Inhibitory activity on interaction between KRAS G12C and cRAF (Alpha technology). The essentials: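 His-tagged K-Ras4B G12C (aa 1-169), GMPPNP-loaded, preincubated with compound 1 h at 25° C in pH 7.5 Tris buffer with MgCl2, TCEP, Tween 20. cRAF-RBD (aa 50-132) and Alpha reagents then added for 1.5 h; Alpha signal normalised to DMSO (0%) and GDP-bound KRAS (100%); IC50 from dose titration.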

Where [2] appears, read: Homo sapiens, MIA PaCa-2, 72 h, Table 3-1.
Setting [3] is: GMPPNP-bound KRAS G12C incubated with compound 25° C. 1 hour, Table 2-1, read-out: IC50.
Setting [4] is: Homo sapiens, MIA PaCa-2, 72 h, Table 3.
Setting [5] is: IC50, GMPPNP-bound KRAS G12C incubated with compound 25° C. 1 hour, Table 2.
The mark [6] stands for this setting: IC50, GMPPNP-bound KRAS G12C incubated with compound 25° C. 1 hour, Table 2-1.

For `COCc1nc2c3c(c(OC)cc2n1C)-c1cccn2c(C(=O)c4cc(F)c(NC(=O)/C=C/CNC5(C)CC5)c(F)c4)nc(c12)CCN3C` (single isomer, unassigned) [Example 181, (E)-N-(2,6-difluoro-4-(6-methoxy-9-(methoxy-methyl)-8,11-dimethyl-8,11,12,13-tetrahydro-1,2a,8,10,11-pentaaza-cycloocta[1,2,3-cd:5,4-e′]-diindene-2-carbonyl)phen-yl)-4-((1-methylcyclo-propyl)amino)but-2-en-amide], the results for the concentration for half-maximal inhibition (IC50) (with MIA PaCa-2 cells (setting [2]); in test [1] (setting [3])) were 0.021 µM and 0.0481 µM, respectively.

On to `Cc1nc2c3c(c(C(F)(F)F)cc2n1C)-c1cccn2c(C(=O)c4ccc(NC(=O)/C=C/CNC5(C)COC5)c(F)c4)cc(c12)CCO3` [Example 68, (E)-N-(4-(9,10-dimethyl-7-(trifluoromethyl)-13,14-dihydro-9H-imidazo-[4″,5″:5′,6′]benzo[1′,2′: 2,3]oxocino[4,5,6-hi]-indolizine-2-carbonyl)-2-fluorophenyl)-4-((3-meth-yloxetan-3-yl)amino)but-2-enamide], for which the IC50 (in general, the concentration that inhibits the measured activity by half) with MIA PaCa-2 cells (setting [2]) was found to be 0.0164 µM; in test [1] (setting [3]), 0.0912 µM.

As to `Cn1cnc2c3c(c(C(F)(F)F)cc21)-c1cccn2c(C(=O)c4cc(F)c(NC(=O)/C=C/CN5C6COCC5C6)c(F)c4)cc(c12)CCO3` [Example 212, (E)-4-(3-oxa-6-azabicyclo-[3.1.1]heptan-6-yl)-N-(2,6-difluoro-4-(9-meth-yl-7-(trifluoromethyl)-13,14-dihydro-9H-imidazo-[4″,5″:5′,6′]benzo[1′,2′: 2,3]oxocino[4,5,6-hi]-indolizine-2-carbonyl)-phenyl)but-2-enamide], the IC50 in the test on MIA PaCa-2 cells (setting [2]) was 0.00416 µM; in test [1] (setting [3]) it was 0.0163 µM.

As for `CC(O)[C@]1(C)CCCN1C/C=C/C(=O)Nc1c(F)cc(C(=O)c2cc3c4c(cccn24)-c2c(C(F)(F)F)cc4c(ncn4C)c2N(C)CC3)cc1F` (single isomer, unassigned) [Example 204], the IC50 came out at 0.118 µM in the test with MIA PaCa-2 cells (Table 3-1) and 0.0364 µM in test [1] (setting [3]).

In the case of `COc1cccc2c1-c1cccc3c(C(=O)c4cc(F)c(NC(=O)/C=C/CN[C@H]5CC[C@H](OC)CC5)c(F)c4)cn(c13)CCO2` [Example 10, (E)-N-(2,6-difluoro-4-(10-methoxy-4,5-dihydrobenzo[7,8][1,4]oxazocino[6,5,4-hi]indole-1-carbonyl)phenyl)-4-(((1,4r)-4-methoxycyclohexyl)amino)but-2-enamide], the figures for the IC50 (with MIA PaCa-2 cells (setting [4]); in test [1] (setting [5])) were 0.23 µM and 0.15 µM, respectively.

As for `Cn1cnc2c3c(c(C(F)(F)F)cc21)-c1cccn2c(C(=O)c4cc(F)c(NC(=O)/C=C/CN5CC6CCC5CO6)c(F)c4)cc(c12)CCO3` (stereo not shown) [Example 220, (E)-4-(2-oxa-5-aza-bicyclo[2.2.2]octan-5-yl)-N-(2,6-difluoro-4-(9-methyl-7-(trifluorometh-yl)-13,14-dihydro-9H-imidazo[4″,5″:5′,6′]benzo-[1′,2′:2,3]oxocino[4,5,6-hi]indolizine-2-carbonyl)-phenyl)but-2-enamide], the results for the IC50 (in the test with MIA PaCa-2 cells (setting [2]); in test [1] (setting [3])) were 0.00652 µM and 0.0244 µM, respectively.

Regarding `Cc1nc2c3c(c(C(F)(F)F)cc2n1C)-c1cccn2c(C(=O)c4cc(F)c(NC(=O)/C=C/CN(C)C)c(F)c4)cc(c12)CCO3` (single isomer, unassigned) [Example 38-2], the IC50 was 0.019 µM in the test on MIA PaCa-2 cells (Table 3) and 0.027 µM in test [1] (GMPPNP-bound KRAS G12C incubated with compound 25° C. 1 hour, Table 2, read-out: IC50).

For the compound `Cn1cnc2c3c(c(C(F)(F)F)cc21)-c1cccn2c(C(=O)c4cc(F)c(NC(=O)/C=C/CN5C6CCCC5COC6)c(F)c4)cc(c12)CCO3` [Example 221, (E)-4-(3-oxa-9-azabicyclo-[3.3.1]nonan-9-yl)-N-(2,6-difluoro-4-(9-methyl-7-(trifluoromethyl)-13,14-dihydro-9H-imidazo[4″,5″: 5′,6′]benzo[1′,2′:2,3]oxo-cino[4,5,6-hi]indolizine-2-carbonyl)phenyl)but-2-enamide], the IC50 with MIA PaCa-2 cells (setting [2]) came out at 0.0209 µM; in test [1] (setting [3]), 0.0392 µM.

As to `CC(C)(C)NC/C=C/C(=O)Nc1c(F)cc(C(=O)c2cn3c4c(cccc24)-c2c(Cl)cccc2OCCC3)cc1F` (single isomer, unassigned) [Example 2-1, (E)-4-(tert-butylamino)-N-(4-(11-chloro-5,6-dihydro-4H-benzo[8,9][1,5]oxazonino[7,6,5-hi]indole-1-carbonyl)-2,6-difluorophenyl)but-2-enamide], the results for the IC50 (in the test on MIA PaCa-2 cells (Table 3); in test [1] (setting [5])) were 3.1 µM and > 6.7 µM, respectively.

In the case of `COCc1nc2c3c(c(C)cc2n1C)-c1cccn2c(C(=O)c4cc(F)c(NC(=O)/C=C/CN[C@H]5CC[C@H](OC)CC5)c(F)c4)cc(c12)CCN3C` (single isomer, unassigned) [Example 105, (E)-N-(2,6-difluoro-4-(10-(methoxymethyl)-7,9,12-trimethyl-9,12,13,14-tetra-hydroimidazo[4″,5″:5′,6′]-benzo[1′,2′:2,3]azocino-[4,5,6-hi]indolizine-2-carbonyl)phenyl)-4-(((1r,4r)-4-methoxycyclo-hexyl)amino)but-2-en-amide], the values for the IC50 (in the test on MIA PaCa-2 cells (setting [2]); in test [1] (setting [3])) were 0.0155 µM and 0.0192 µM, respectively.

With `Cn1cnc2c3c(c(C(F)(F)F)cc21)-c1cccn2c(C(=O)c4cc(F)c(NC(=O)/C=C/CN5CC[C@H]6CC[C@@H](O)[C@H]65)c(F)c4)cc(c12)CCO3` (racemic) [Example 164], the figures for the IC50 (with MIA PaCa-2 cells (setting [2]); in test [1] (setting [3])) were 0.0137 µM and 0.0215 µM, respectively.

Consider “(E)-N-(2,6-difluoro-4-(10-(methoxymethyl)-9,13-dimethyl-12-oxo-7-(trifluoromethyl)-9,12,13,14-tetrahydroimidazo[4″,5″:3′,4′]benzo[1′,2′:6,7]azocino[5,4,3-hi]indolizine-2-carbonyl)phenyl)-4-((3-methyloxetan-3-yl)amino)but-2-enamide [Example 152]”, for which the IC50 in the test on MIA PaCa-2 cells (Table 3-1) came to 0.927 µM; in test [1] (setting [3]), 0.0893 µM.

Regarding `COCc1nc2c3c(c(C(F)(F)F)cc2n1C)-c1cccn2c(C(=O)c4cc(F)c(NC(=O)/C=C/CN[C@H]5CCOC5)c(F)c4)nc(c12)CCN3C` (single isomer, unassigned) [Example 184], the IC50 in the test on MIA PaCa-2 cells (setting [2]) came out at 0.0281 µM; in test [1] (setting [3]), 0.0483 µM.

In the case of `COCc1nc2c3c(c(C)cc2n1C)-c1cccn2c(C(=O)c4cc(F)c(NC(=O)/C=C/CN[C@H]5CCOC5)c(F)c4)cc(c12)CCN3C` (single isomer, unassigned) [Example 106], the IC50 worked out at 0.022 µM in the test with MIA PaCa-2 cells (setting [2]) and 0.018 µM in test [1] (setting [3]).

Turning to `Cc1cc2c(nc(C)n2C)c2c1-c1cccn3c(C(=O)c4cc(F)c(NC(=O)/C=C/CN[C@H]5CCOC5)c(F)c4)cc(c13)CCN2C` (single isomer, unassigned) [Example 107], the results for the concentration for half-maximal inhibition (IC50) (in the test on MIA PaCa-2 cells (setting [2]); in test [1] (setting [3])) were 0.0297 µM and 0.0237 µM, respectively.

Regarding `CCN(CC)[C@H]1CC[C@H](NC/C=C/C(=O)Nc2c(F)cc(C(=O)c3cn4c5c(cccc35)-c3c(C(F)(F)F)cc5c(nc(C)n5C)c3N(C)CC4)cc2F)CC1` [Example 102, (E)-4-(((1r,4r)-4-(diethyl-amino)cyclohexyl)amino)-N-(2,6-difluoro-4-(8,9,11-trimethyl-6-(trifluoro-methyl)-8,11,12,13-tetra-hydroimidazo[4″,5″:5′,6′]-benzo[1′,2′:5,6][1,4]-diazocino[7,8,1-hi]indole-2-carbonyl)phenyl)but-2-enamide], the IC50 amounted to 0.0105 µM with MIA PaCa-2 cells (setting [2]) and 0.0112 µM in test [1] (setting [6]).

Turning to `Cn1cnc2c3c(c(C(F)(F)F)cc21)-c1cccn2c(C(=O)c4cc(F)c(NC(=O)/C=C/CN5CCCC[C@H]5CO)c(F)c4)cc(c12)CCO3` [Example 222, (S,E)-N-(2,6-difluoro-4-(9-methyl-7-(trifluoro-methyl)-13,14-dihydro-9H-imidazo[4″,5″:5′,6′]-benzo[1′,2′:2,3]oxocino-[4,5,6-hi]indolizine-2-carbonyl)phenyl)-4-(2-(hydroxymethyl)piperidin-1-yl)but-2-enamide], the IC50 with MIA PaCa-2 cells (setting [2]) came to 1.94 µM; in test [1] (setting [3]), 0.0758 µM.

In the case of `Cc1nc2c3c(c(C(F)(F)F)cc2n1C)-c1cccc2c(C(=O)c4cc(F)c(NC(=O)/C=C/CNC5(C)COC5)c(F)c4)cn(c12)CCN3C` (single isomer, unassigned) [Example 54], the IC50 was 0.00539 µM in the test on MIA PaCa-2 cells (setting [2]) and 0.0221 µM in test [1] (setting [6]).

For the compound `CO[C@H]1CC[C@H](NC/C=C/C(=O)Nc2c(F)cc(C(=O)c3cn4c5c(cccc35)-c3c(C)cc5c(nc(C)n5C)c3OC[C@H]4C)cc2F)CC1` [Example 17, (E)-N-(2,6-difluoro-4-((R)-6,8,9,13-tetramethyl-12,13-dihydro-8H-imidazo[4″,5″;3′,4′]benzo[1′,2:7,8][1,4]oxazocino[6,5,4-hi]indole-2-carbonyl)phenyl)-4-(((1,4r)-4-methoxycyclohexyl)amino)but-2-enamide], the IC50 was determined as 0.82 µM in the test with MIA PaCa-2 cells (setting [4]) and 1.3 µM in test [1] (setting [5]).

Take `CO[C@H]1CC[C@H](NC/C=C/C(=O)Nc2c(F)cc(C(=O)c3cn4c5c(cccc35)-c3c(Cl)cccc3OCCCC4)cc2F)CC1` [Example 3, (E)-N-(4-(12-chloro-4,5,6,7-tetrahydrobenzo[2,3][1,6]oxazecino[4,5,6-hi]indole-1-carbonyl)-2,6-difluorophenyl)-4-(((1,4r)-4-methoxycyclohexyl)amino)but-2-enamide]: the IC50 in the test on MIA PaCa-2 cells (setting [4]) came out at 4.4 µM; in test [1] (setting [5]), 2.7 µM.
